Each structure is given as a SMILES string.

Experiment [1] relates to thermostable DNA polymerase. The settings on record: Latham et al., Nucleic Acids Res. 1994; cited from earlier work.
Experiment [2] relates to thermostable DNA polymerases (Taq, Vent, Pfu, rTh). Put plainly: PCR assays with modified dUTP in place of dTTP, panel of thermostable DNA polymerases. It counts as biochemical. To be noted: for substrate for thermostable DNA polymerases in PCR: typical PCR conditions, analog in place of dTTP, all polymerases tested (Taq, Vent, Pfu, rTh), 519 base pair product; for incorporation of modified base in PCR under varied conditions: variation of Mg+2 (15 to 30 mM) and analog concentrations. An excerpt: (§1) Commercially available thermostable DNA polymerases from […] organisms were studied; Taq from Thermus aquaticus, Vent from Thermococcus litoralis, Pfu from Pyrococcus furiosus, and rTh from Thermus thermophilus. […] Homogeneous incorporation of these derivatives in PCR is not possible due to chain termination, see 11c for discussion of derivatives in PCR: a) M. Shimkus, J. Levy, T. Herman, Proc. Natl. Acad. Sci. U.S.A. 1985, 82, 2593-7; b) B. L. Iverson, P. B. Dervan, J Am. Chem. Soc. 1987, 109, 1241-3. and ref. 10; c) H. Yu, J. Chao, D. Patek, R. Mujumdar, A. S. Waggoner, Nucleic Acids Res. 1994, 22, 3226-32. Successful PCR with this template requires incorporation of 246 modified bases including a single stretch of 8 contiguous thymidines.
(§2) Compound 3 was derivatized with three different N-hydroxysuccinimide esters to prepare Compounds 4a-c (Scheme 2 FIG. 3). […] To test this structure-activity relationship, 4e-4g maintaining the a,b-unsaturated linker arm common to 4a, were also prepared (Scheme 2, FIG. 3). […] Compound 4g, with a free amino group, was used as a template for the synthesis of Compounds 4h and 4i.

The next experiment concerns the target T1, rTh polymerase (Thermus thermophilus, UniProt P52028).
T1 construct: purchased
Put plainly: PCR assay with modified dUTP in place of dTTP, rTh polymerase. The experiment is classed as biochemical. The settings on record: analog in place of dTTP, 519 base pair product.
Text: as §1, §2

In experiment [3] the target is T2, Superscript II reverse transcriptase (Moloney murine leukemia virus, UniProt P03355, D1183G/D1242N/E1221Q).
T2 construct: Superscript II reverse transcriptase; purchased Gibco/BRL
Briefly: Reverse transcriptase template-directed extension assay. The experiment is classed as biochemical. To be noted: 0.4 mM analog; 0.2 mM dATP, dCTP, dGTP; 37 C. As for the experimental part: Reverse transcriptases may also be utilized in conjunction with PCR in in vitro selection schemes of DNA enzymes. […] The specificity of this reverse transcriptase is broader and not predictive of the structural requirements of the thermostable polymerases.
Reverse transcriptase assays: Template-directed extension was performed by addition of 10 pmol template DNA 5'-GCTAAAAAAGCTGCTAAAAAGCTGCTAAAAGCTGCTAAAGCTAAGCTAGCTCCCTTTAGTGAGGGTTAATTGC-3' (SEQ ID NO. 1) to 10 pmol primer DNA 5'-GCAATTAACCCTCACTAAAGGG-3' (SEQ ID NO 2) followed by Superscript II reverse transcriptase (Gibco, 200 units.(1^-1). The reaction (25 (I) contained 0.2 mM of dATP, dCTP, dGTP and 0.4 mM analog. Trace quantities of ((-^32 P(-dATP was included to allow the extension efficiency to be monitored. All components except reverse transcriptase were combined, incubated at 90° C. and cooled to 37° C. to anneal the primer. The enzyme (600 units) was added and the reaction mixture was incubated at 37 (C. The DNA was precipitated in ethanol and then dissolved in gel-loading buffer containing urea and heated for 3 min at 90° C. After separation on a 10% denaturing acrylarnide gel, the samples were further analyzed with a Phosphorimager.

T1 sequence (P52028 whole entry): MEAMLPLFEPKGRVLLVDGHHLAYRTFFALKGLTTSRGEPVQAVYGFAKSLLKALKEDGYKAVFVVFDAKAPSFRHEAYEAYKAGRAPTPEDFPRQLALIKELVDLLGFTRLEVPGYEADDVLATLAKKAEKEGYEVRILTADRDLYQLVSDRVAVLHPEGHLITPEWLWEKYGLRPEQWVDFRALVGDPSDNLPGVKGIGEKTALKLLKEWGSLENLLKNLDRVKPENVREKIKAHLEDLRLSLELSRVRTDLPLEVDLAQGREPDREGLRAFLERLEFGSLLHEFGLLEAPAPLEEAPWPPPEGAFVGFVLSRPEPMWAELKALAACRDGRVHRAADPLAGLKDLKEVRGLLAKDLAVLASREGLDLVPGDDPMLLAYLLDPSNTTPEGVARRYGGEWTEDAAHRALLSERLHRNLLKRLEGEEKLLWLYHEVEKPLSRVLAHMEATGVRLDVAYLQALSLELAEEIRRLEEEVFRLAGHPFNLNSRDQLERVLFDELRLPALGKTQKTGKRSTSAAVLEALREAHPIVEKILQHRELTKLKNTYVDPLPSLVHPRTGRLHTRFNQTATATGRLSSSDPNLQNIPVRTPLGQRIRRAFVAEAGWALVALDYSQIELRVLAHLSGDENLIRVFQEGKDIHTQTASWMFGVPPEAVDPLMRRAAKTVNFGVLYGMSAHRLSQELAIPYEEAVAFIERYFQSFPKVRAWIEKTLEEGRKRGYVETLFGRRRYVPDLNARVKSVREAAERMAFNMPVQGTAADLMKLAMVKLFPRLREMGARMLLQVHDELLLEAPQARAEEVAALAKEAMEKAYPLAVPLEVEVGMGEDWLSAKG

With `CCCC#Cc1cn([C@H]2C[C@H](O)[C@@H](COP(=O)(O)OP(=O)(O)OP(=O)(O)O)O2)c(=O)[nH]c1=O` [5-(1-pentynyl)-2' deoxyuridine triphosphate], the “substrate for a thermostable DNA polymerase” value in experiment [1] is recorded as “good substrate”.

For `NCC=Cc1cn([C@H]2C[C@H](O)[C@@H](COP(=O)(O)OP(=O)(O)OP(=O)(O)O)O2)c(=O)[nH]c1=O` [Compound 3, C-5(3-aminopropenyl)-2'-deoxvuridinetriphosphate], in experiment [2], the “criteria for in vitro selection: substrate for thermostable polymerases and product serves as template for multiple cycles of PCR amplification” value is recorded as “criteria were met”; the “substrate for thermostable DNA polymerases in PCR” value is reported as “acted as a substrate”. Moreover, at rTh polymerase, the “incorporation / substrate in PCR with rTh polymerase (only polymerase of the panel that accepts it)” value is “incorporation into the 519 base pair product only with rTh polymerase”.

For the compound `O=C(/C=C/c1c[nH]cn1)NCC=Cc1cn([C@H]2C[C@H](O)[C@@H](COP(=O)(O)OP(=O)(O)OP(=O)(O)O)O2)c(=O)[nH]c1=O` [Compound 4a], in experiment [2], the “criteria for in vitro selection: substrate for thermostable polymerases and product serves as template for multiple cycles of PCR amplification” value is “criteria were met”; the “substrate for thermostable DNA polymerases in PCR” value is recorded as “excellent substrate for all the polymerases tested”.

With `O=C(O)c1ccc(C(=O)NC/C=C/c2cn([C@H]3C[C@H](O)[C@@H](COP(=O)(O)OP(=O)(O)OP(=O)(O)O)O3)c(=O)[nH]c2=O)cc1` [Compound 4b], the “incorporation of modified base in PCR under varied conditions” value in experiment [2] is “failed to define conditions that allowed for incorporation”.

For `O=C(O)c1ccccc1-c1ccccc1C(=O)NCC=Cc1cn([C@H]2C[C@H](O)[C@@H](COP(=O)(O)OP(=O)(O)OP(=O)(O)O)O2)c(=O)[nH]c1=O` [Compound 4c], the “incorporation of modified base in PCR under varied conditions” value in experiment [2] is listed as “failed to define conditions that allowed for incorporation”. In experiment [3], the “substrate of Superscript II reverse transcriptase in template directed synthesis” value was “all but 4c and 4h were substrates”.

`O=C(CCc1c[nH]cn1)NC/C=C/c1cn([C@H]2C[C@H](O)[C@@H](COP(=O)(O)OP(=O)(O)OP(=O)(O)O)O2)c(=O)[nH]c1=O` [Compound 4d]: in experiment [2], the “substrate for thermostable DNA polymerases in PCR” value is “No conditions could be defined with any of the polymerases that allowed for PCR”.

`NCc1cccc(/C=C/C(=O)NC/C=C/c2cn([C@H]3C[C@H](O)[C@@H](COP(=O)(O)OP(=O)(O)OP(=O)(O)O)O3)c(=O)[nH]c2=O)c1` [Compound 4g]: the “substrate for thermostable DNA polymerases in PCR” value in experiment [2] was “robust substrate for PCR as compared to 3”.

In the case of `O=C(O)CCCC(=O)NCc1cccc(/C=C/C(=O)NC/C=C/c2cn([C@H]3C[C@H](O)[C@@H](COP(=O)(O)OP(=O)(O)OP(=O)(O)O)O3)c(=O)[nH]c2=O)c1` [Compound 4h], the “substrate for thermostable DNA polymerases in PCR” value in experiment [2] was “good substrate for all thermostable polymerases tested”. Besides, the “substrate of Superscript II reverse transcriptase in template directed synthesis” value in experiment [3] was “all but 4c and 4h were substrates”.

Regarding `CC(=O)N[C@@H](Cc1c[nH]cn1)C(=O)NCc1cccc(/C=C/C(=O)NC/C=C/c2cn([C@H]3C[C@H](O)[C@@H](COP(=O)(O)OP(=O)(O)OP(=O)(O)O)O3)c(=O)[nH]c2=O)c1` [Compound 4i], at rTh polymerase, the “incorporation / substrate in PCR with rTh polymerase (only polymerase of the panel that accepts it)” value is listed as “substrate only for rTh polymerase”.

These data come from patent US6175001A, “Functionalized pyrimidine nucleosides and nucleotides and DNA's incorporating same” (The Scripps Research Institute, priority 1998, dated 2001).
